The values below are quoted from earlier work in patent EP1223952B1, “METHODS FOR TREATMENT OF SOLID TUMORS AND METASTASIS BY GENE THERAPY” (Aguilar-Cordova, Carlos, Estuardo, priority 1999, dated 2001).

For data set [1] the following is noted: in combination with an LHRH agonist.
For data set [2] the following is noted: oral, at all doses.
The conditions of data set [3]: in vivo.

With `CC(C)C(=O)Nc1ccc([N+](=O)[O-])c(C(F)(F)F)c1` [Eulexin, flutamide], in data set [1], the diarrhea is 12%, the gynecomastia is 9%, the hot flashes is reported as 61% and the impotence is 33%. In data set [1], the loss of libido is given as 36%, the nausea/vomiting is reported as 11%, the other is listed as 7% and the “other GI” value is 6%.
For `CC(C)[C@H](N)C(=O)OCCOCn1cnc2c(=O)[nH]c(N)nc21` [valacyclovir, Valacyclovir], the “Peak plasma valacyclovir concentrations” value in data set [2] was “less than 0.5 mcg/ml”. Moreover, under “in vivo”, the arthralgia is given as 1-6%, the depression is 1-7%, the “dizziness or abdominal pain” value is listed as 2-11% and the headache is on record as 14-35%. Besides, under “in vivo”, the nausea is reported as 6-15 % of patients and the vomiting is recorded as 1-6%. Moreover, under “laboratory abnormalities”, the “abnormal liver function tests” value is 1-4 % of patients; the “anemia, leukopenia, thrombocytopenia and elevated serum creatinine” value is ≤ 1 % of patients.
For leuprolide acetate [Lupron Depot], in data set [3], the “Elevation of LDH (> 2 x normal)” value was 19.6%.
